Results as given in US5300279A, “Organic amine phosphonic acid complexes for the treatment of calcific tumors” (The Dow Chemical Company, priority 1990, dated 1994).
Like-named read-outs stand apart in the source and are kept apart here.

Tests used:
[1] = humans
[2] = test system: cancerous lesions; assay: scintigraphic imaging in humans with metastatic bone cancer; format: in vivo
Method: Scintigraphic images were obtained two hours post injection and were used for comparison with images previously obtained using Tc-99m-HDP (hydroxymethylenediphosphonate), a commercially available diagnostic bone imaging agent.
The uptake observed for each radionuclide in selected lesions compared to its uptake in normal bone was determined using digitized images.

[3] = test system: lesion / normal bone; settings: compared with Tc-99m-MDP
Method: Thus, two holes were drilled into the surface of the tibia of a rabbit in order to damage the bone. Seven to ten days later, the animal was injected with the radionuclide composition. After three hours, the rabbit was anesthetized and imaged using an Anger camera and pinhole collimator.

[4] = test system: tumor
Method: (§1) An English Setter with a tumor in his pelvis was injected with approximately 19 mCi of a composition containing Sm-153-EDTMP. After 2 hours, the dog was imaged using a scintillation camera.
An Irish Setter with a tumor in the femur was injected with a composition containing Sm-153-EDTMP. The leg was amputated and samples of the tumor and normal bone were analyzed for Sm-153.
(§2) An Irish setter with undifferentiated sarcoma metastatic to bone was treated with 16 mCi (0.57 mCi/kg) of a composition containing Sm-153-EDTMP. […] After approximately 3 months, when signs of lameness began to reappear, the dog was given a second treatment of 15 mCi (0.49 mCi/kg), of a composition containing Sm-153-EDTMP.

[5] = biolocalization of the radionuclide in rats (tissue distribution after tail vein injection); format: in vivo, male Sprague Dawley rats; settings: Sm-153, rats
Method: Studies to determine the qualitative biodistribution of the various radionuclides were conducted by injecting the compositions into rats and obtaining the gamma ray images of the entire animal at various times up to two hours after injection.
Laboratory rats were injected with the above complex (50-100 μl) via the tail vein. After 2 hours, the animals were sacrificed by cervical dislocation and organs and tissues removed. Samples were counted with a NaI counter to determine the biolocalization of the radionuclide.

[6] = Method: (§3) Sterile pyrogen-free vials were prepared to contain 210 mg of EDTMP and 140 mg NAOH by freeze-drying a solution containing appropriate amounts of EDTMP and NAOH. The vials were sealed under vacuum. To prepare one of the compositons of the invention, 6 ml of a solution containing Sm-153 (approximately 3×10^-4 M in Sm) in 0.1M HCl was injected into the sealed vial through a septum.
Urine was collected and counted to determine the percentage of the radioactivity excreted as a function of time after injection.

[7] = rabbits, three hour, averaged for 5 rabbits
Method: Biolocalization studies were also performed in rabbits. The rabbits were injected with 100-250 microliters of the composition into the marginal ear vein. In studies where blood clearance was measured, blood samples were taken through a heparinized cannula placed in the marginal vein of the ear not used for injection. Three hours after injection, a blood sample was taken from each rabbit by cardiac puncture and each animal was sacrificed by injection of a commercial euthanasia solution. After sacrifice, images were obtained by placing the carcass directly on the face of a large field-of-view scintillation camera.
Whenever in the following examples and tables data is presented on the administered dose of radioactivity, the numbers given represent the percentage of the administered dose which localized in the indicated tissue. The ratios of radioactivity observed in bone relative to blood and muscle were calculated based on the percent dose per gram in the bone and in the blood and muscle. Whenever the ratios of radioactivity found in bone to that found in nonosseous tissue is given, the calculation was made as indicated above on a percent dose per gram basis.
Compositions containing Sm-153-EDTMP (compositions prepared as in Example 2) were also tested in rabbits.

[8] = test system: white blood cells and platelets; settings: for platelet and white blood cell levels: 2-3 weeks after administration
Method: A series of normal beagles was treated with various dose levels of a composition containing Sm-153-EDTMP. White blood cell and platelet counts were measured weekly to check for signs of bone marrow supression.

[9] = for Percent Injected Dose Remaining in Whole Blood, Average: average of 5 patients
Method: as §3
Five humans with metastatic bone cancer (three with lung cancer and two with prostate cancer as the primary site) were injected with a composition containing 2 mCi of Sm-153-EDTMP. Blood samples were taken intermittently to determine the fraction of the Sm-153 remaining in the blood.

[10] = test system: tumor; remark: listed apart in the source
Method: as §1, §2
A female Irish Wolfhound with a possible osteosarcoma on the left distal radius was injected with a composition containing ^166 Ho-EDTMP (0.97 mCi/kg).

[11] = 2 hours, ratio of percent dose per gram, average of 5 rats
[12] = Irish setter, nine months after second treatment

SMILES: O=P([O-])(O)CN(CCN(CP(=O)([O-])O)CP(=O)(O)O)CP(=O)([O-])O.[153Sm+3] [Example 2]
- blood profiles (white blood cell, red blood cell, platelet count) and serum chemistry profiles ([1]; post-injection vs preinjection): No significant changes
- vital signs ([1]; several post injection times vs preinjection): not significantly different than preinjection values
- Sm-153 concentration in cancerous lesions ([2]; compared with dogs): high, selective and similar to that observed in dogs
- localization of radioactivity in lesions vs normal bone compared with Tc-99m-HDP ([2]; digitized images): localization of radioactivity in the lesions to a similar extent
- visibility of cancerous lesions compared with Tc-99m-HDP ([2]; qualitative comparison of images): all cancerous lesions observable with Tc-99m-HDP are seen equally well with Sm-153-EDTMP
- retention of radioactivity in the kidneys ([2]; two hour post injection images): no observable retention of radioactivity in the kidneys
- localization of Sm-153 in scintigraphic images ([2]; two hours post injection): localized in skeletal tissue with no significant uptake and retention in non-osseous tissues
- lesion to normal bone ratio [3]: approximately equal to that of Tc-99m-MDP
- uptake of radioactivity in the area of the tumor (scintillation scan) ([4]; English Setter, tumor in pelvis, approximately 19 mCi, 2 hours): high uptake of radioactivity in the area of the tumor
- scans compared with Tc-99m-MDP ([4]; English Setter, 2 hours): looked very similar to an earlier scan performed using Tc-99m-MDP
- lesion to normal bone ratio ([4]; English Setter, compared with Tc-99m): very similar to that for To-99m
- amount of Sm-153 in the tumor relative to non-lesionous bone, per gram basis ([4]; Irish Setter, tumor in femur, same leg): 15-20 times
- scans compared with Tc-99m-MDP ([4]; Irish setter, sarcoma metastatic to bone): very similar to scans obtained earlier using Tc-99m-MDP
- uptake of Sm-153 in the area of the lesion (scintillation scans) ([4]; Irish setter, sarcoma metastatic to bone, 16 mCi (0.57 mCi/kg)): high uptake of Sm-153 in the area of the lesion
- scintillation scans [5]: the radioactivity concentrating in the skeletal system
- clearance of radioactivity through the kidneys into the urine ([5]; 2 hours): Most of the radioactivity not found in the skeleton was cleared through the kidneys into the urine
- radioactivity concentrated in the skeletal system ([5]; 2 hours): 55-65%
- soft tissue uptake ([5]; 2 hours): very little soft tissue uptake
- % Dose in Blood ([5]; 2 hours, average of 5 rats): 0.032 % Dose
- % Dose in Liver ([5]; 2 hours, average of 5 rats): 0.25 % Dose
- % Dose in Skeleton ([5]; 2 hours, average of 5 rats): 58 % Dose
- % Dose in Urine ([5]; 2 hours, average of 5 rats): 49 % Dose
- Bone/Blood [5, 11]: 1800
- Bone/Muscle [5, 11]: 1500
- Percent Excretion in Urine, Average ([6]; 1 Hr., average of 5 patients): 26.13%
- Percent Excretion in Urine, Average ([6]; 2 Hr., average of 5 patients): 7.15%
- Percent Excretion in Urine, Average ([6]; 4-8 Hr., average of 5 patients): 9.02%
- Percent Excretion in Urine, Average ([6]; 4 Hr., average of 5 patients): 10.95%
- Percent Excretion in Urine, Average ([6]; 8-12 Hr., average of 5 patients): 1.76%
- Percent Excretion in Urine, Average ([6]; 12-24 Hr., average of 5 patients): 1.07%
- Percent Excretion in Urine, 24 Hr Total, Average ([6]; 24 Hr Total, average of 5 patients): 56.09%
- clearance of radioactivity into the urine ([6]; humans, words): cleared rapidly
- % Dose in Blood [7]: 0.12 % Dose
- % Dose in Bone Marrow [7]: 0.15 % Dose
- % Dose in Liver [7]: 0.95 % Dose
- % Dose in Skeleton [7]: 66 % Dose
- % Dose in Urine ([7]; 180 min): 34 % Dose
- Bone/Blood ([7]; ratio of percent dose per gram): 900
- Bone/Muscle ([7]; ratio of percent dose per gram): 1200
- platelet and white blood cell levels ([8]; 0.5 mCi Sm-153/kg): smaller decrease in the levels of platelets and white blood cells
- time to return of white cells and platelets to normal levels ([8]; 0.5 mCi Sm-153/kg, few animals that fell below normal): 4-5 weeks
- time to return of white cells and platelets to normal levels ([8]; 1.0 mCi Sm-153/kg): 4-5 weeks
- platelet and white blood cell levels ([8]; 1.0 mCi Sm-153/kg): slight decrease in both platelets and white blood cells
- Percent Injected Dose Remaining in Whole Blood, Average ([9]; 5 min.): 31.63 Percent Injected Dose
- Percent Injected Dose Remaining in Whole Blood, Average ([9]; 15 min.): 20.90 Percent Injected Dose
- Percent Injected Dose Remaining in Whole Blood, Average ([9]; 30 min.): 15.77 Percent Injected Dose
- Percent Injected Dose Remaining in Whole Blood, Average ([9]; 60 min.): 9.53 Percent Injected Dose
- Percent Injected Dose Remaining in Whole Blood, Average ([9]; 120 min.): 5.17 Percent Injected Dose
- Percent Injected Dose Remaining in Whole Blood, Average ([9]; 180 min.): 3.28 Percent Injected Dose
- Percent Injected Dose Remaining in Whole Blood, Average ([9]; 240 min.): 2.08 Percent Injected Dose
- concentration of radioactivity in red cells ([9]; humans): no significant concentration of radioactivity in red cells
- radioactivity in the plasma fraction ([9]; humans): all of the measured activity was in the plasma fraction
- clearance of radioactivity from the blood ([9]; humans, words): the radioactivity cleared very rapidly from the blood
- pain / mobility ([10]; English Setter, approximately 19 mCi, seven days after treatment): appeared to be in less pain as evidenced by an increase in its mobility
- pain / mobility / lameness ([10]; Irish setter, 16 mCi (0.57 mCi/kg), seven days after treatment): appeared to be in less pain as evidenced by an increase in mobility and a decrease in lameness
- time until signs of lameness began to reappear ([10]; Irish setter, after first treatment 16 mCi (0.57 mCi/kg)): approximately 3 months
- lameness and general health ([10]; Irish setter, eight months after second treatment): no recurrence of lameness, had gained weight and appeared healthy
- regression of bone lesions (X-rays) ([10]; Irish setter, five months after second treatment): significant regression of bone lesions
- death [10, 12]: died of kidney failure
- total necropsy [10, 12]: no evidence of cancer
- mobility / lameness after second treatment ([10]; Irish setter, second treatment 15 mCi (0.49 mCi/kg), seven days): general increase in mobility and decrease in lameness
